Test results from patent publication US20250144066A1, “Prevention and Treatment of Parasitic Infections” (priority 2017, published 2025).
≈ marks a conversion by molar mass, not a printed value. Like-named read-outs stand apart in the source and are kept apart here.

Key:
[1] = tested on: Zika Virus; test: Zika virus cytopathic effect (CPE) inhibition, Vero 76, primary screen (Zika-089); assay type: cell-based; conditions: for EC50: Zika virus, MR766, Vero 76, primary
[2] = tested on: Zika Virus; test: Zika virus CPE inhibition (Neutral Red), Vero 76, secondary (Zika-094); assay type: cell-based; conditions: Neutral Red (Cytopathic effect), MR766
[3] = tested on: Zika Virus; test: Zika virus yield reduction (VYR), Vero 76, secondary (Zika-094); assay type: cell-based; conditions: Visual (Virus yield reduction), MR766
[4] = tested on: Zika Virus; test: Zika virus CPE inhibition (Neutral Red), Huh7, secondary (Zika-094); assay type: cell-based
[5] = tested on: Zika Virus; test: Zika virus yield reduction (VYR), Huh7, secondary (Zika-094); assay type: cell-based; conditions: Huh-7, Visual (Virus yield reduction), MR766
[6] = tested on: Zika Virus; test: Zika prevention, CPE inhibition (Neutral Red), Huh7, 4 h pre-incubation (Zika-138); assay type: cell-based; conditions: Zika virus, Huh-7, Neutral Red (Cytopathic effect), pre-incubated 4 hours prior to infection, read-out: EC50
[7] = tested on: Zika Virus; test: Zika prevention, virus yield reduction (VYR), Huh7, 4 h pre-incubation (Zika-138); assay type: cell-based; conditions: for Virus Titer: 4 hr pre-incubation, Huh7 cells
Description: (§1) An experiment was carried out as specified in Example 8. In a Zika Prevention Trial, MPA was pre-incubated with human cells 4 hours or 24 hours before Zika virus infection.

[8] = tested on: Zika Virus; test: Zika prevention, CPE inhibition (Neutral Red), Huh7, 24 h pre-incubation (Zika-138); assay type: cell-based; conditions: Zika virus, Huh-7, Neutral Red (Cytopathic effect), pre-incubated 24 hours prior to infection, read-out: EC50
[9] = tested on: Zika Virus; test: Zika prevention, virus yield reduction (VYR), Huh7, 24 h pre-incubation (Zika-138); assay type: cell-based; conditions: for Virus Titer: 24 hr pre-incubation, Huh7 cells
Description: as §1

[10] = tested on: Zika Virus; test: Zika prevention, CPE inhibition (Neutral Red), Vero 76, 4 h pre-incubation (Zika-138); assay type: cell-based; conditions: Zika virus, Neutral Red (Cytopathic effect), pre-incubated 4 hours prior to infection, read-out: EC50
[11] = tested on: Zika Virus; test: Zika prevention, virus yield reduction (VYR), Vero 76, 4 h pre-incubation (Zika-138); assay type: cell-based; conditions: Zika virus, Visual (Virus yield reduction), pre-incubated 4 hours prior to infection, read-out: EC90
[12] = tested on: Zika Virus; test: Zika prevention, CPE inhibition (Neutral Red), Vero 76, 24 h pre-incubation (Zika-138); assay type: cell-based; conditions: Zika virus, Neutral Red (Cytopathic effect), pre-incubated 24 hours prior to infection, read-out: EC50
[13] = tested on: Zika Virus; test: Zika prevention, virus yield reduction (VYR), Vero 76, 24 h pre-incubation (Zika-138); assay type: cell-based; conditions: Zika virus, Visual (Virus yield reduction), pre-incubated 24 hours prior to infection, read-out: EC90
[14] = RNA Hybridization toxicity in HG23 cells (16-21); assay type: cell-based; conditions: human, HG23 cells
Description: (§2) Secondary testing was done with human norovirus.

[15] = tested on: mouse norovirus (MNV-1); test: Mouse norovirus CPE inhibition (NR), RAW264.7 (17-09); assay type: cell-based; conditions: Norovirus
[16] = NR toxicity in HG23 cells (17-14); assay type: cell-based; conditions: human, HG23 cells, NR (Tox)
Description: as §2

[17] = tested on: Respiratory syncytial virus A2; test: microbe, parasite or virus in culture; assay type: cell-based
[18] = tested on: Adenovirus5 Adenoid75; test: Adenovirus 5 CPE inhibition, A549 (ADV-0172); assay type: cell-based; conditions: for EC50: Human mastadenovirus C, A549, read-out: EC50
[19] = Toxicity in A549 cells (ADV-0172); assay type: cell-based; conditions: human, A549 cells
[20] = tested on: Lassa fever virus Josiah; test: organism not typed; assay type: cell-based
[21] = tested on: Powassan virus LB; test: microbe, parasite or virus in culture; assay type: cell-based; conditions: for EC50: Powassan virus, BHK
[22] = tested on: Rift Valley fever virus MP-12; test: microbe, parasite or virus in culture; assay type: cell-based; conditions: for EC50: Rift Valley fever virus, Vero76
[23] = tested on: Vero76; conditions: African green monkey
[24] = in vitro; conditions: dog
[25] = in vitro; conditions: African green monkey
[26] = in vitro; conditions: African green monkey; remark: listed apart in the source
[27] = NR toxicity in RAW264.7 cells (17-09); conditions: mouse
[28] = Toxicity in Vero 76 cells, primary screen (Zika-089); conditions: monkey
[29] = Neutral Red toxicity in Huh7 cells, secondary (Zika-094); conditions: human
[30] = Neutral Red toxicity in Vero 76 cells, secondary (Zika-094); conditions: monkey
[31] = Neutral Red toxicity in Huh7 cells, 4 h pre-incubation (Zika-138); conditions: human
[32] = Neutral Red toxicity in Huh7 cells, 24 h pre-incubation (Zika-138); conditions: human
[33] = Neutral Red toxicity in Vero 76 cells, 4 h pre-incubation (Zika-138); conditions: monkey
[34] = Neutral Red toxicity in Vero 76 cells, 24 h pre-incubation (Zika-138); conditions: monkey
[35] = Vero 76, Neutral Red (Cytopathic effect)
[36] = Vero 76, Visual (Cytopathic effect)

## COc1c(C)c2c(c(O)c1C/C=C(\C)CCC(=O)O)C(=O)OC2 [EP1601, 6-(4-hydroxy-6-methoxy-7-methyl-3-oxo-1,3-dihydroisobenzofuran-5-yl)-4-methyl-hex-4-enoic acid]
[1]; [35]
  EC50: 0.15 µg/mL (≈ 0.468 µM)
[1]; [36]
  EC50: < 0.1 µg/mL
[1]; three in vitro tests (Zika-A, Zika-B, Zika-C)
  activity against Zika Virus: active
[2]
  EC50: 0.14 µg/mL (≈ 0.437 µM)
[3]
  EC90: 0.3 µg/mL (≈ 0.937 µM)
[4]; Huh-7, Neutral Red (Cytopathic effect), MR766, Huh7, secondary
  EC50: 0.14 µg/mL (≈ 0.437 µM)
[4]; Huh-7, Zika virus, 'one of our tests' (test not specified), read-out: EC50
  EC50: 0.049 µg/mL (≈ 0.153 µM)
[5]
  EC90: 0.088 µg/mL (≈ 0.275 µM)
[6]
  EC50: 0.17 µg/mL (≈ 0.531 µM)
[7]; MPA 0.1 μg/ml
  Virus Titer: 4.5 Log10 CCID50/0.1 ml
[7]; MPA 1 μg/ml
  Virus Titer: 4.5 Log10 CCID50/0.1 ml
[7]; MPA 10 μg/ml
  Virus Titer: 4.5 Log10 CCID50/0.1 ml
[7]; MPA 32 μg/ml
  Virus Titer: 4.5 Log10 CCID50/0.1 ml
[7]; MPA 100 μg/ml
  Virus Titer: 0.67 Log10 CCID50/0.1 ml
[7]; Zika virus, Huh-7, Visual (Virus yield reduction), Huh7, pre-incubated 4 hours prior to infection, read-out: EC90
  EC90: 42.7 µg/mL (≈ 133 µM)
[7]; given 4 hours before the infection
  mitigation of infection by Zika virus: strongly mitigated the infection
[8]
  EC50: 0.55 µg/mL (≈ 1.72 µM)
[9]; Huh7 cells pre-incubated with drug for 24 hrs
  virus in VYR assay: reduced virus to zero
[9]; MPA 0.1 μg/ml
  Virus Titer: 4.5 Log10 CCID50/0.1 ml
[9]; MPA 1 μg/ml
  Virus Titer: 3.5 Log10 CCID50/0.1 ml
[9]; MPA 10 μg/ml
  Virus Titer: <.67 Log10 CCID50/0.1 ml
[9]; MPA 32 μg/ml
  Virus Titer: <.67 Log10 CCID50/0.1 ml
[9]; MPA 100 μg/ml
  Virus Titer: <.67 Log10 CCID50/0.1 ml
[9]; Zika virus, Huh-7, Visual (Virus yield reduction), Huh7, pre-incubated 24 hours prior to infection, read-out: EC90
  EC90: 0.78 µg/mL (≈ 2.43 µM)
[9]; given 24 hours before infection
  prevention of infection by Zika virus: completely prevent infection
[10]
  EC50: > 100 µg/mL
[11]
  EC90: 17.8 µg/mL (≈ 55.6 µM)
[12]
  EC50: 8 µg/mL (≈ 25 µM)
[13]
  EC90: 10 µg/mL (≈ 31.2 µM)
[14]
  CC50: > 100 µM
[15]
  EC50: 0.123 µM
  EC90: 0.384 µM
[16]
  CC50: 64 µM
[17]
  activity against Respiratory Syncytial Virus: highly active
[17]; human respiratory syncytial virus, MA104
  EC50: < 0.1 µg/mL
[18]
  activity against Adenovirus 5: active
[18]; A549, Neutral Red (Cytopathic effect)
  EC50: 0.31 µg/mL (≈ 0.968 µM)
[18]; A549, Visual (Cytopathic effect)
  EC50: 0.32 µg/mL (≈ 0.999 µM)
[19]; Neutral Red (Toxicity)
  CC50: 12 µg/mL (≈ 37.5 µM)
[19]; Visual (Toxicity)
  CC50: 15 µg/mL (≈ 46.8 µM)
[20]
  activity against Lassa Fever: active
[20]; Vero
  EC50: 0.2 µg/mL (≈ 0.624 µM)
[21]
  activity against Powassan: active
[21]; Neutral Red (Cytopathic effect)
  EC50: 0.36 µg/mL (≈ 1.12 µM)
[21]; Visual (Cytopathic effect)
  EC50: 0.32 µg/mL (≈ 0.999 µM)
[22]
  activity against Rift Valley: active
[22]; [35]
  EC50: 4 µg/mL (≈ 12.5 µM)
[22]; [36]
  EC50: 3.1 µg/mL (≈ 9.68 µM)
[23]
  CC50: 17 µg/mL (≈ 53.1 µM)
[24]
  CC50: > 100 µM
[25]
  CC50: > 100 µg/mL
[26]
  CC50: 26 µg/mL (≈ 81.2 µM)
[27]
  CC50: 32 µM
[28]; CC50, Neutral Red (Toxicity)
  CC50: 14 µg/mL (≈ 43.7 µM)
[28]; CC50, Visual (Toxicity)
  CC50: > 100 µg/mL
[29]
  CC50: 1.6 µg/mL (≈ 4.99 µM)
[30]
  CC50: 2.3 µg/mL (≈ 7.18 µM)
[31]
  CC50: > 100 µg/mL
[32]
  CC50: 1.4 µg/mL (≈ 4.37 µM)
[33]
  CC50: > 100 µg/mL
[34]
  CC50: 37 µg/mL (≈ 116 µM)
